Measured values published in patent US9655877B2, “Therapeutic methods for treating inflammation and immune system disorders” (priority 2009, dated 2017).
Where “and” joins values, the source holds several entries; their conditions need not be identical. Identical values can stand only once.

Legend:
Neuro-2a cells [1] = experiment: Conditioned culture medium transfer model (LPS-treated BV-2 supernatant on Neuro-2a), MTT assay; format: cell-based, murine; conditions: supernatant of BV-2 cells treated with 100 ng/ml LPS and 50 μg/ml compound 18 h, on Neuro-2a 48 h; LPS only more than 40%
Protocol: BV-2 cells (3×10^5 cells/ml) were first treated with 100 ng/ml LPS for 18 h, in the presence of either 0.05% DMSO or 50 μg/ml senkyunolide A or Z-ligustilide. After centrifugation, the supernatants from BV-2 cells were transferred to Neuro-2a cells ([…]) for 48 h. Viability of Neuro-2a cells was measured using MTT assays. Results are shown as mean SD from three independent experiments. *p<0.05 compared with DMSO+LPS.
BV-2 cells were seeded at 3×10^5 cells/ml in 12-well culture plates (1 ml in each well). They were co-treated with or without 100 ng/ml LPS, in the presence of 0.05% DMSO, 50 μg/ml senkyunolide A, or 50 μg/ml Z-ligustilide, for 18 h. The supernatants were then collected and centrifuged at 13,200 rpm for 3 min. The resulting supernatants were then transferred to Neuro-2a cells (1×10^5 cells/ml in 24-well culture plates), which were incubated for another 48 h. Cell viability of Neuro-2a cells was measured by MTT assay.
Briefly, to investigate the physiological significance of Sen A and Z-Lig, a conditioned culture medium transfer model, commonly used for studying neuronal cell death induced by microglial activation, was adopted. After BV-2 cells were challenged with LPS, the supernatants were collected and centrifuged. The conditioned culture media were then transferred to Neuro-2a cell cultures.

[2] = tested on: TNF-α production in human blood macrophages; experiment: LPS-induced TNF-α production in human blood macrophages (PBMac), ELISA; format: cell-based; conditions: 25 or 50 μg/ml for 24 hours, then 1 ng/ml LPS for 24 hours
Protocol: To measure the TNF-α level in cell culture supernatants, BV-2 cells were seeded at 1×10^5 cells/ml in the volume of 0.5 ml in 24-well culture plates. They were co-treated with or without 100 ng/ml LPS in the absence or presence of indicated concentrations of bioactive compounds of LCX for 18 h. In addition, PBMac cells were seeded at 1×10^6 cells/ml in the volume of 0.5 ml in 24-well plates. After incubation, the supernatants were collected and TNF-α levels were determined by ELISA according to the manufacturer's instructions (R&D Systems). […] To study the effect of Sen A and Z-Lig at various concentrations on TNF-α production, 1×10^6 cells/ml (FIG. 6) PBMac cells are seeded in 24-well plates (0.5 ml in each well). Cells are treated with 25 μg/ml or 50 μg/ml Sen A, Z-Lig, or DMSO for 24 hours prior to the addition of 1 ng/ml LPS, and further incubated for another 24 hours. The culture supernatants are collected and the level of secreted TNF-α is measured by ELISA according to the manufacturer's instructions (R&D Systems, Minneapolis, Minn.).

Neuro-2a cells [3] = experiment: Neuro-2a cells treated with compound alone in the culture media; format: cell-based, murine; conditions: compound alone in the culture media (data not shown)
Source text: Specifically, a significant reduction in cell death, to less than 15% and 25%, respectively, was observed.

[4] = tested on: TNF-α protein production in BV-2 cells; experiment: LPS-induced TNF-α protein production in BV-2 cells, ELISA; format: cell-based, murine; conditions: 100 ng/ml LPS, 18 hours
Protocol: To measure the TNF-α level in cell culture supernatants, BV-2 cells were seeded at 1×10^5 cells/ml in the volume of 0.5 ml in 24-well culture plates. They were co-treated with or without 100 ng/ml LPS in the absence or presence of indicated concentrations of bioactive compounds of LCX for 18 h. In addition, PBMac cells were seeded at 1×10^6 cells/ml in the volume of 0.5 ml in 24-well plates. After incubation, the supernatants were collected and TNF-α levels were determined by ELISA according to the manufacturer's instructions (R&D Systems).
The role of senkyunolide A (Sen A) and Z-ligustilide (Z-Lig) in suppressing TNF-α production is further evaluated in this Example. Briefly, 5×10^4 cells/ml BV-2 cells are seeded in 24-well plates (0.5 ml in each well). Cells are treated with 0.05% DMSO; 0.05% DMSO and 100 ng/ml LPS; 50 μg/ml Sen A/Z-Lig; or 100 ng/ml LPS and Sen A/Z-Lig at a concentration of 1 μg/ml, 5 μg/ml, 10 μg/ml, 25 μg/ml, and 50 μg/ml for 18 hours, respectively. The culture supernatant is collected and the level of secreted TNF-α is measured by ELISA.

[5] = tested on: nitrite production in BV-2 cells; experiment: LPS-induced nitrite (nitric oxide) production in BV-2 cells, Griess reagent; format: cell-based, murine; conditions: 100 ng/ml LPS, 1-50 μg/ml, 18 hours
Protocol: Nitrite levels in the culture media were determined using Griess reagent under manufacturer's instructions (Sigma Aldrich, St. Louis, Mo.). Fresh culture media were used as blanks and the nitrite levels were determined by using a standard sodium nitrite curve.
The effect of each extract on nitric oxide production is evaluated according to the procedures illustrated as follows. Briefly, murine microglia cell line BV-2 is maintained in Dulbecco's modified Eagle's minimum essential medium (DMEM) supplemented with 10% FBS and 1% penicillin and streptomycin (Invitrogen Life Technologies, Carlsbad, Calif.) at 37° C. in a humidified atmosphere with 5% CO2 in warm air.
0.1 M cells/ml BV-2 cells are seeded in 24-well plates (0.5 ml in each well). Cells are treated with 0.05% DMSO; 0.05% DMSO and 100 ng/ml LPS; or 100 ng/ml LPS and 50 μg/ml of an LCX extract for 18 hours, respectively. The culture supernatant is collected. The nitric oxide level is measured using the Griess reagent according to standard manufacturer's instructions (Sigma Aldrich, St. Louis, Mo.), and assessed using the standard sodium nitrite curve.
The effect of senkyunolide A (Sen A) and Z-ligustilide (Z-Lig) at various concentrations on LPS-induced nitrite production is further evaluated in this Example. Briefly, 0.1 M cells/ml BV-2 cells are seeded in 24-well plates (0.5 ml in each well). Cells are treated with 0.05% DMSO; 0.05% DMSO and 100 ng/ml LPS; 50 μg/ml Sen A/Z-Lig; or 100 ng/ml LPS and Sen A/Z-Lig at a concentration of 1 μg/ml, 5 μg/ml, 10 μg/ml, 25 μg/ml, and 50 μg/ml for 18 hours, respectively. The culture supernatant is collected. The nitric oxide level is measured using the Griess reagent according to standard manufacturer's instructions (Sigma Aldrich, St. Louis, Mo.), and evaluated using the standard sodium nitrite curve.

CCC/C=C1\OC(=O)C2=C1CCC=C2 [Z-ligustilide]
cell death of Neuro-2a cells (Neuro-2a cells [1]): < 25% | effect on endotoxin-induced TNF-α production [2]: suppress endotoxin-induced TNF-α production in a dose-dependent manner | cell death with compound alone (Neuro-2a cells [3]): did not show cell death | effect on TNF-α production over concentrations ([4]; 1-50 μg/ml): inhibits TNF-α production in a dose-dependent manner | concentration that significantly inhibits TNF-α production [4]: 10 µg/mL and > 10 µg/mL | effect on nitrite production over concentrations [5]: inhibits nitrite production in a dose-dependent manner
